From paper PMC12933330, “Data-Driven Design of PROTAC Linkers to Improve PROTAC Cell Membrane Permeability” (JACS Au, 2026)

Test system: not listed separately
Experiment: Caco-2 cell membrane permeability study (transcellular transport, A-to-B)
Assay type: in vitro ADME
Conditions: human; Caco-2, apical to basal, 10 μM compound, 2 h, 37 °C, 4% BSA in basal compartment; read-out: Ex. value, cell membrane permeability (Papp, AtoB)
Protocol: (§1) KT-474 (Catalog No. E1655), NX-2127 (Catalog No. E1381), MS4078 (Catalog No. S0072), dBET6 (Catalog No. S8762), and dBET57 (Catalog No. S0137) were purchased from Selleck Chemicals (Houston, TX, USA). […] The Caco-2 cell permeability assay using these PROTACs was outsourced to Axcelead Drug Discovery Partners, Inc. (Kanagawa, Japan). Caco-2 cells (American Type Culture Collection, Manassas, VA, USA) were cultured, and a transcellular transport study was performed. The cells were cultured in Transwell 96-well permeable support (pore size 0.4 μm, 0.11 cm^2 surface area) with a polycarbonate membrane (PSHT004S5, Millipore Corporation, Bedford, MA, USA). The cells were preincubated with bovine serum albumin (BSA)-free Hank’s balanced salt solution (HBSS) in the apical compartment (75 μL) and HBSS containing 4% BSA in the basal compartment (250 μL) for 10 min at 37 °C. Subsequently, transcellular transport was initiated by the addition of BSA-free HBSS to apical compartments containing 10 μM compounds. The assay was terminated by separating each assay plate after 2 h. Aliquots (50 μL) from the basolateral compartment were mixed with acetonitrile/methanol. After centrifugation, the compound concentrations in the supernatant were measured using liquid chromatography-tandem mass spectrometry (LC–MS/MS) and a Kinetex C18 column (2.6 μm, 2.1 × 30 mm). The apparent permeabilities (P app, AtoB) of the receivers were determined. Lucifer yellow was added onto the apical compartment at a concentration of 100 μM. The P app of lucifer yellow in the wells where each test compound was evaluated was reported. The P app value of each compound in the membrane permeability test was calculated from a one-point standard curve (0.1 μM) using the following equation. Papp=C×V/T×A×C0 where C (μM) is the concentration of the test compound on the basal side after incubation (measured value); V (mL) is the volume of the basolateral compartment (0.25 mL); T (s) is the permeation experiment time (7200 s); A (cm^2) is the membrane area (0.11 cm^2); and C0 (μM) is the concentration of test compound (measured value).

Row | Papp A→B at 2 h, 10 μM [×10⁻⁶ cm/s] | SMILES
1 | 1.26 | Cn1c(=O)n(C2CCC(=O)NC2=O)c2cccc(C#CCOC3CCN(C[C@H]4CC[C@H](n5cc(NC(=O)c6cnn7ccc(N8C[C@H]9C[C@@H]8CO9)nc67)c(C(F)F)n5)CC4)CC3)c21 (stereo partly drawn) [KT-474]
2 | 0.06 | Cc1cc(Nc2ncc(Cl)c(Nc3ccccc3S(=O)(=O)C(C)C)n2)c(OC(C)C)cc1C1CCN(CC(=O)NCCNc2cccc3c2C(=O)N(C2CCC(=O)NC2=O)C3=O)CC1 (stereo not drawn) [MS4078]
3 | 0.11 | NC(=O)c1ncc(N2CCCCC2)nc1Nc1ccc(C2CCN(C[C@H]3CCN(c4ccc5c(c4)C(=O)N(C4CCC(=O)NC4=O)C5=O)C3)CC2)cc1 (stereo partly drawn) [NX-2127]
4 | 0.99 | Cc1sc2c(c1C)C(c1ccc(Cl)cc1)=NC(CC(=O)NCCCCCCCCNC(=O)COc1cccc3c1C(=O)N(C1CCC(=O)NC1=O)C3=O)c1nnc(C)n1-2 (stereo not drawn) [dBET6]
5 | 0.52 | Cc1sc2c(c1C)C(c1ccc(Cl)cc1)=NC(CC(=O)NCCNc1cccc3c1C(=O)N(C1CCC(=O)NC1=O)C3=O)c1nnc(C)n1-2 (stereo not drawn) [dBET57]

Test system: Caco-2 cells
Experiment: as above
Assay type: in vitro ADME
Conditions: Caco-2, A-to-B
Protocol: as §1

Row | SMILES | cell membrane permeability, result in words
6 | Cn1c(=O)n(C2CCC(=O)NC2=O)c2cccc(C#CCOC3CCN(C[C@H]4CC[C@H](n5cc(NC(=O)c6cnn7ccc(N8C[C@H]9C[C@@H]8CO9)nc67)c(C(F)F)n5)CC4)CC3)c21 (stereo partly drawn) [KT-474] | relatively high cell membrane permeability
7 | Cc1sc2c(c1C)C(c1ccc(Cl)cc1)=NC(CC(=O)NCCCCCCCCNC(=O)COc1cccc3c1C(=O)N(C1CCC(=O)NC1=O)C3=O)c1nnc(C)n1-2 (stereo not drawn) [dBET6] | relatively high cell membrane permeability
8 | Cc1sc2c(c1C)C(c1ccc(Cl)cc1)=NC(CC(=O)NCCNc1cccc3c1C(=O)N(C1CCC(=O)NC1=O)C3=O)c1nnc(C)n1-2 (stereo not drawn) [dBET57] | relatively high cell membrane permeability

Test system: Caco-2 cell membranes
Experiment: not given
Parameters: method as in PROTAC-DB 3.0
Conditions: Caco-2 A-to-B; as recorded in PROTAC-DB 3.0; ref PROTAC-DB 3.0; cited from earlier work

Row | SMILES | experimental value of the cell membrane permeability [μcm/s]
9 | Cc1sc2c(c1C)C(c1ccc(Cl)cc1)=NC(CC(=O)NCc1cn(CCCCNC(=O)COc3ccc(C4CCC(=O)NC4=O)cc3)nn1)c1nnc(C)n1-2 (stereo not drawn) [Compound 2895] | 2.14
